Assay results: ChEMBL document CHEMBL1145929, “Syntheses and binding studies of new [(aryl)(aryloxy)methyl]piperidine derivatives and related compounds as potential antidepressant drugs with high affinity for serotonin (5-HT) and norepinephrine (NE) transporters” (J Med Chem, 2003)

These molecules were tested against T1, 5-hydroxytryptamine receptor 1A (Rattus norvegicus, UniProt P19327) (assay: Binding affinity against 5-hydroxytryptamine 1A receptor (5-HT1A) by displacement of [3H]8-OH-DPAT from rat hippocampus membranes).
T1 sequence (P19327 whole entry): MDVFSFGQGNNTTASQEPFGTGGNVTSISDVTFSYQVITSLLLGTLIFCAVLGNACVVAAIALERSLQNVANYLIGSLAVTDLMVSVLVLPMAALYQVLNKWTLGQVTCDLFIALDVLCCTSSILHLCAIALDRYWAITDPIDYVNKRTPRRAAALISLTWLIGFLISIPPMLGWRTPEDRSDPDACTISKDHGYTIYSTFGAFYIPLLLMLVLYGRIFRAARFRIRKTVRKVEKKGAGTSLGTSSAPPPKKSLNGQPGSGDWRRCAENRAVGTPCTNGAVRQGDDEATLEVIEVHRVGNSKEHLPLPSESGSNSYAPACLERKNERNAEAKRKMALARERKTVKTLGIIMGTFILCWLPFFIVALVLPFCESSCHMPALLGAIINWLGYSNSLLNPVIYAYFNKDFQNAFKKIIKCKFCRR
Type: cell membranes, Membrane

| Structure (SMILES) | IC50 [nM] |
| --- | --- |
| Fc1ccc(OC(c2ccc(Cl)cc2)C2CCNCC2)cc1 (stereo not given) | > 1000 |
| Oc1cc2c(cc1O)CN(CCC(Oc1ccccc1C(F)(F)F)c1ccccc1)CC2 (stereo not given) | > 1000 |
| COc1cc(F)cc(OC(c2ccccc2)C2CCNCC2)c1 (stereo not given) | > 1000 |
| Fc1ccc(C(Oc2ccc3c(c2)OCO3)C2CCCNC2)cc1 (stereo not given) | > 1000 |
| Cc1ccc(C(Oc2cccc(F)c2)C2CCNCC2)cc1 (stereo not given) | > 1000 |
| Cc1c(Cl)cccc1OC(c1ccccc1)C1CCNCC1 (stereo not given) | > 1000 |
| COc1cc2c(cc1OC)CN(CCC(Oc1ccccc1C(F)(F)F)c1ccccc1)CC2 (stereo not given) | > 1000 |
| N#Cc1ccc(OC(CC2CCNCC2)c2ccc(F)cc2)cc1 (stereo not given) | > 1000 |
| c1ccc(-c2ccc(OC(c3ccccc3)C3CCNCC3)cc2)cc1 (stereo not given) | > 1000 |
| N#Cc1ccc(OC(c2ccc(F)cc2)C2CCCNC2)cc1 (stereo not given) | > 1000 |
| N#Cc1cccc(OC(c2ccccc2)C2CCNCC2)c1 (stereo in doubt; 15k) | > 1000 |
| Fc1ccc(OC(c2ccccc2)C2CCNCC2)cc1 (stereo in doubt; 15p) | > 1000 |
| Cc1ccc(OC(CCN2CCc3cc(O)c(O)cc3C2)c2ccccc2)cc1 (stereo not given) | > 1000 |
| Ic1ccc(OC(c2ccccc2)C2CCNCC2)cc1 (stereo not given) | > 1000 |
| Fc1cccc(OC(c2ccccc2)C2CCNCC2)c1 (stereo in doubt; 15j) | > 1000 |
| Fc1cccc(OC(c2ccccc2)C2CCCC2)c1 (stereo not given) | > 1000 |
| CC(=O)N1CCC(C(Oc2ccccc2)c2ccc(F)cc2)CC1 (stereo not given) | > 1000 |

| Structure (SMILES) | IC50 [nM] |
| --- | --- |
| Fc1ccc(C(Oc2ccc(Cl)c(Cl)c2)C2CCCNC2)cc1 (stereo not given) | > 1000 |
| Fc1cc(F)cc(OC(c2ccccc2)C2CCNCC2)c1 (stereo in doubt; 15aj) | > 1000 |
| Brc1ccc(OC(c2ccccc2)C2CCNCC2)cc1 (stereo in doubt; 15r) | > 1000 |
| Fc1ccccc1OC(CCN1CCc2ccccc2C1)c1ccccc1 (stereo not given) | > 1000 |
| COc1ccc(OC(CC2CCNCC2)c2ccccc2)cc1 (stereo not given) | > 1000 |
| Oc1ccc(OC(c2ccccc2)C2CCNCC2)cc1F (stereo not given) | > 1000 |
| COc1cc2c(cc1OC)CN(CCC(Oc1ccccc1F)c1ccccc1)CC2 (stereo not given) | > 1000 |
| COc1ccc(C(CN(C)C)C2(O)CCCCC2)cc1 (stereo not given) [VENLAFAXINE] | > 1000 |
| N#Cc1cc(F)cc(OC(c2ccccc2)C2CCNCC2)c1 (stereo not given) | > 1000 |
| Fc1ccc(OC(c2ccc(F)cc2)C2CCNCC2)cc1 (stereo not given) | > 1000 |
| Cc1ccc(OC(CCN2CCc3ccccc3C2)c2ccccc2)cc1 (stereo not given) | > 1000 |
| Cc1c(F)cccc1OC(c1ccccc1)C1CCNCC1 (stereo not given) | > 1000 |
| COc1ccc(OC(c2ccc(F)cc2)C2CCN(C(C)=O)CC2)cc1 (stereo not given) | > 1000 |
| COc1cc2c(cc1OC)CN(CCC(Oc1ccc(C)cc1)c1ccccc1)CC2 (stereo not given) | > 1000 |
| CNCCC(Oc1ccccc1OC)c1ccccc1 (stereo not given) [NISOXETINE] | > 1000 |
| Fc1ccc([C@@H]2CCNC[C@H]2COc2ccc3c(c2)OCO3)cc1 [PAROXETINE] | > 1000 |
| Clc1cccc(OC(c2ccccc2)C2CCNCC2)c1 (stereo in doubt; 15l) | > 1000 |

These molecules were tested against 5-hydroxytryptamine receptor 2A (Rattus norvegicus, UniProt P14842) (assay: Binding affinity against 5-hydroxytryptamine 2A receptor by displacement of [3H]-ketanserin from rat prefrontal cerebral cortex mambranes).
5-hydroxytryptamine receptor 2A, sequence (P14842 whole entry): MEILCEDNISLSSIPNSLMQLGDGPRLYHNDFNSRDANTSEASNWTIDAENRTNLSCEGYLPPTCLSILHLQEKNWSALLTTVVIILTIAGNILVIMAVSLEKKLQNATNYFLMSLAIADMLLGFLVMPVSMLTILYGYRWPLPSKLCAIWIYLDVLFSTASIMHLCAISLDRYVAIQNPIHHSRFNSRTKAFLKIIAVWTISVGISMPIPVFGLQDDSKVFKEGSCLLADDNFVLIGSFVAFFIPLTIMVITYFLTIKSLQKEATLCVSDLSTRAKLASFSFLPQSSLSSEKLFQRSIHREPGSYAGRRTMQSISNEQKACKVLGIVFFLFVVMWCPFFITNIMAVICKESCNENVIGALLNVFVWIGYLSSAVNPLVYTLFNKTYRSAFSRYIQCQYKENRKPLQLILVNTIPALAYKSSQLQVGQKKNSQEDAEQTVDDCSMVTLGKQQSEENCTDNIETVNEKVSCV
Type: tissue-based, Frontal cortex

| Structure (SMILES) | IC50 [nM] |
| --- | --- |
| Fc1ccc(OC(c2ccc(Cl)cc2)C2CCNCC2)cc1 (stereo not given) | > 1000 |
| Oc1cc2c(cc1O)CN(CCC(Oc1ccccc1C(F)(F)F)c1ccccc1)CC2 (stereo not given) | > 1000 |
| COc1cc(F)cc(OC(c2ccccc2)C2CCNCC2)c1 (stereo not given) | > 1000 |
| Fc1ccc(C(Oc2ccc3c(c2)OCO3)C2CCCNC2)cc1 (stereo not given) | > 1000 |
| Cc1ccc(C(Oc2cccc(F)c2)C2CCNCC2)cc1 (stereo not given) | > 1000 |
| Cc1c(Cl)cccc1OC(c1ccccc1)C1CCNCC1 (stereo not given) | > 1000 |
| COc1cc2c(cc1OC)CN(CCC(Oc1ccccc1C(F)(F)F)c1ccccc1)CC2 (stereo not given) | > 1000 |
| N#Cc1ccc(OC(CC2CCNCC2)c2ccc(F)cc2)cc1 (stereo not given) | > 1000 |
| c1ccc(-c2ccc(OC(c3ccccc3)C3CCNCC3)cc2)cc1 (stereo not given) | > 1000 |
| N#Cc1ccc(OC(c2ccc(F)cc2)C2CCCNC2)cc1 (stereo not given) | > 1000 |
| N#Cc1cccc(OC(c2ccccc2)C2CCNCC2)c1 (stereo in doubt; 15k) | > 1000 |
| Fc1ccc(OC(c2ccccc2)C2CCNCC2)cc1 (stereo in doubt; 15p) | > 1000 |
| Cc1ccc(OC(CCN2CCc3cc(O)c(O)cc3C2)c2ccccc2)cc1 (stereo not given) | > 1000 |
| Ic1ccc(OC(c2ccccc2)C2CCNCC2)cc1 (stereo not given) | > 1000 |
| Fc1cccc(OC(c2ccccc2)C2CCNCC2)c1 (stereo in doubt; 15j) | > 1000 |
| Fc1cccc(OC(c2ccccc2)C2CCCC2)c1 (stereo not given) | > 1000 |

| Structure (SMILES) | IC50 [nM] |
| --- | --- |
| CC(=O)N1CCC(C(Oc2ccccc2)c2ccc(F)cc2)CC1 (stereo not given) | > 1000 |
| Fc1ccc(C(Oc2ccc(Cl)c(Cl)c2)C2CCCNC2)cc1 (stereo not given) | > 1000 |
| Fc1cc(F)cc(OC(c2ccccc2)C2CCNCC2)c1 (stereo in doubt; 15aj) | > 1000 |
| Brc1ccc(OC(c2ccccc2)C2CCNCC2)cc1 (stereo in doubt; 15r) | > 1000 |
| Fc1ccccc1OC(CCN1CCc2ccccc2C1)c1ccccc1 (stereo not given) | > 1000 |
| COc1ccc(OC(CC2CCNCC2)c2ccccc2)cc1 (stereo not given) | > 1000 |
| Oc1ccc(OC(c2ccccc2)C2CCNCC2)cc1F (stereo not given) | > 1000 |
| COc1cc2c(cc1OC)CN(CCC(Oc1ccccc1F)c1ccccc1)CC2 (stereo not given) | > 1000 |
| N#Cc1cc(F)cc(OC(c2ccccc2)C2CCNCC2)c1 (stereo not given) | > 1000 |
| Fc1ccc(OC(c2ccc(F)cc2)C2CCNCC2)cc1 (stereo not given) | > 1000 |
| Cc1ccc(OC(CCN2CCc3ccccc3C2)c2ccccc2)cc1 (stereo not given) | > 1000 |
| Cc1c(F)cccc1OC(c1ccccc1)C1CCNCC1 (stereo not given) | > 1000 |
| COc1ccc(OC(c2ccc(F)cc2)C2CCN(C(C)=O)CC2)cc1 (stereo not given) | > 1000 |
| COc1cc2c(cc1OC)CN(CCC(Oc1ccc(C)cc1)c1ccccc1)CC2 (stereo not given) | > 1000 |
| CNCCC(Oc1ccccc1OC)c1ccccc1 (stereo not given) [NISOXETINE] | > 1000 |
| Clc1cccc(OC(c2ccccc2)C2CCNCC2)c1 (stereo in doubt; 15l) | > 1000 |

What follows are molecules tested against T2, Sodium-dependent serotonin transporter (Rattus norvegicus, UniProt P31652) (assay: Binding affinity to the serotonin transporter (SERT) measured by displacement of [3H]paroxetine in male wistar rats).
T2 sequence (P31652 whole entry): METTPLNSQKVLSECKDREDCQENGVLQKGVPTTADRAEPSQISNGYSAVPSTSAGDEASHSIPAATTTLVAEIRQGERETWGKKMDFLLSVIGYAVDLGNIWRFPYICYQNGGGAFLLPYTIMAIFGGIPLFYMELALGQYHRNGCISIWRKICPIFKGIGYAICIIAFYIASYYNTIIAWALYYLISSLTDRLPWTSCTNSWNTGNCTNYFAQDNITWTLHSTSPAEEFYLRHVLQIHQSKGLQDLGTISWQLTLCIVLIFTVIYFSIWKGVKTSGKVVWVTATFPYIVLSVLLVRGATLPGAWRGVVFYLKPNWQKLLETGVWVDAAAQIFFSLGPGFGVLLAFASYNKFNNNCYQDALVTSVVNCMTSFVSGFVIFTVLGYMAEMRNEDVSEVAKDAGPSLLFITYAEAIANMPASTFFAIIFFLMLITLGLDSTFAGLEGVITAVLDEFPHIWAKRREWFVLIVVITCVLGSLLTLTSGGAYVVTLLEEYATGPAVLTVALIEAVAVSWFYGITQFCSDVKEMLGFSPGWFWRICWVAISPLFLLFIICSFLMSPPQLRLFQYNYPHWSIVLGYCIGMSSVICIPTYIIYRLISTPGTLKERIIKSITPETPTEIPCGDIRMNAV

| Structure (SMILES) | Ki [nM] |
| --- | --- |
| Fc1ccc(OC(c2ccc(Cl)cc2)C2CCNCC2)cc1 (stereo not given) | 7.5 |
| COc1cc(F)cc(OC(c2ccccc2)C2CCNCC2)c1 (stereo not given) | 1.9 |
| Fc1ccc(C(Oc2ccc3c(c2)OCO3)C2CCCNC2)cc1 (stereo not given) | 4.2 |
| Cc1ccc(C(Oc2cccc(F)c2)C2CCNCC2)cc1 (stereo not given) | 14.1 |
| Cc1c(Cl)cccc1OC(c1ccccc1)C1CCNCC1 (stereo not given) | 12.2 |
| COc1cc2c(cc1OC)CN(CCC(Oc1ccccc1C(F)(F)F)c1ccccc1)CC2 (stereo not given) | 134 |
| N#Cc1ccc(OC(CC2CCNCC2)c2ccc(F)cc2)cc1 (stereo not given) | 16.9 |
| N#Cc1ccc(OC(c2ccc(F)cc2)C2CCCNC2)cc1 (stereo not given) | 40 |
| N#Cc1cccc(OC(c2ccccc2)C2CCNCC2)c1 (stereo in doubt; 15k) | 1 |
| Fc1ccc(OC(c2ccccc2)C2CCNCC2)cc1 (stereo in doubt; 15p) | 1.1 |
| Ic1ccc(OC(c2ccccc2)C2CCNCC2)cc1 (stereo not given) | 20.6 |
| Fc1ccc(C(Oc2ccc(Cl)c(Cl)c2)C2CCCNC2)cc1 (stereo not given) | 32.2 |
| Fc1cc(F)cc(OC(c2ccccc2)C2CCNCC2)c1 (stereo in doubt; 15aj) | 3.4 |
| Brc1ccc(OC(c2ccccc2)C2CCNCC2)cc1 (stereo in doubt; 15r) | 2 |
| COc1ccc(OC(CC2CCNCC2)c2ccccc2)cc1 (stereo not given) | 47 |
| Oc1ccc(OC(c2ccccc2)C2CCNCC2)cc1F (stereo not given) | 21.3 |
| COc1cc2c(cc1OC)CN(CCC(Oc1ccccc1F)c1ccccc1)CC2 (stereo not given) | 207 |
| N#Cc1cc(F)cc(OC(c2ccccc2)C2CCNCC2)c1 (stereo not given) | 2.6 |
| Fc1ccc(OC(c2ccc(F)cc2)C2CCNCC2)cc1 (stereo not given) | 0.9 |
| Cc1c(F)cccc1OC(c1ccccc1)C1CCNCC1 (stereo not given) | 5.3 |

These molecules were tested against T2, Sodium-dependent serotonin transporter (assay: Binding affinity against serotonin transporter (SERT) by displacement of [3H]paroxetine in male wistar rats).

| Structure (SMILES) | IC50 [nM] |
| --- | --- |
| Oc1cc2c(cc1O)CN(CCC(Oc1ccccc1C(F)(F)F)c1ccccc1)CC2 (stereo not given) | > 1000 |
| c1ccc(-c2ccc(OC(c3ccccc3)C3CCNCC3)cc2)cc1 (stereo not given) | > 1000 |
| Cc1ccc(OC(CCN2CCc3cc(O)c(O)cc3C2)c2ccccc2)cc1 (stereo not given) | > 1000 |
| Fc1cccc(OC(c2ccccc2)C2CCCC2)c1 (stereo not given) | > 1000 |
| CC(=O)N1CCC(C(Oc2ccccc2)c2ccc(F)cc2)CC1 (stereo not given) | > 1000 |
| Fc1ccccc1OC(CCN1CCc2ccccc2C1)c1ccccc1 (stereo not given) | > 1000 |
| Cc1ccc(OC(CCN2CCc3ccccc3C2)c2ccccc2)cc1 (stereo not given) | > 1000 |
| COc1ccc(OC(c2ccc(F)cc2)C2CCN(C(C)=O)CC2)cc1 (stereo not given) | > 1000 |
| COc1cc2c(cc1OC)CN(CCC(Oc1ccc(C)cc1)c1ccccc1)CC2 (stereo not given) | 325 |
